Consider two compounds from ChEMBL document CHEMBL2074491, “Transport of drugs across the hepatic sinusoidal membrane: sinusoidal drug influx and efflux in the liver” (Semin Liver Dis, 2000).

One data set relates to Rattus norvegicus. Nature of the data set: TP_TRANSPORTER: Northern blot in vivo, kidney of SD rat. As to conditions: Sprague Dawley. The data set is classed as functional, organism-based.
Data set [1] has as its target T1, Solute carrier organic anion transporter family member 1A1 (Rattus norvegicus, UniProt P46720).
T1 sequence (P46720 whole entry): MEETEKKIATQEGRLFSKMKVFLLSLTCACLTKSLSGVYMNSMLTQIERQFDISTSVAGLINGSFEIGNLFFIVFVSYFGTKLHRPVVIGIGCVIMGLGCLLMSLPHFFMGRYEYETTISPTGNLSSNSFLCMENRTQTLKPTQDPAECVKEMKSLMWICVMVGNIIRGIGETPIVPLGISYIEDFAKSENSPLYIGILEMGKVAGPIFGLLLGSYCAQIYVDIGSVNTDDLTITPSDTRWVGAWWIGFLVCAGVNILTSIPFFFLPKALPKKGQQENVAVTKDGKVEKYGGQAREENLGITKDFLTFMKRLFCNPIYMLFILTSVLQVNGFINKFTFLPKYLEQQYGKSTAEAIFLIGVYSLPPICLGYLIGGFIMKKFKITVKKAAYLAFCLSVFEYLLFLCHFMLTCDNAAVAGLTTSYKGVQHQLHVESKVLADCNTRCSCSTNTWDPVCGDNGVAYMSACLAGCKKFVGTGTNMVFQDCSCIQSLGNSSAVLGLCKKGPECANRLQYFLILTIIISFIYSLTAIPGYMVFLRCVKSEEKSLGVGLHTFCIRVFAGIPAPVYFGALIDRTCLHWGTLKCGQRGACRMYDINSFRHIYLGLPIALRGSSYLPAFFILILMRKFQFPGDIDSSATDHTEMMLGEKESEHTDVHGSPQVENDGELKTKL
The experiment in a line: TP_TRANSPORTER: transport activity. The data set is classed as functional.

For `C[C@]12CC[C@@H]3c4ccc(O)cc4CC[C@H]3[C@@H]1CC[C@@H]2O`, the Activity entry in the data set on Rattus norvegicus was “is not a substrate [-]”.
Turning to `CCCCC[C@H](O)/C=C/[C@@H]1[C@@H](C/C=C\CCCC(=O)O)[C@@H](O)C[C@H]1O` [DINOPROST], the Activity result in data set [1] is “is not a substrate [-]”.
